The source of these data is PMC12091851, “Replacing a Cereblon Ligand by a DDB1 and CUL4 Associated Factor 11 (DCAF11) Recruiter Converts a Selective Histone Deacetylase 6 PROTAC into a Pan‐Degrader” (Chemmedchem, 2025).

The subject of experiment [1] is MM.1S cells. In words: CellTiter-Glo cell viability assay. The format is cell-based, human. As to conditions: for EC50: Homo sapiens, MM1.S, 72 h, n.e.: no effect (≤25 % effect up to 50 μM), read-out: EC50 MM.1S; for antiproliferative activity reduced compared to vorinostat by a factor: MM.1S cells. As to the method: For this purpose, the dilution series were prepared in 200-fold concentration in DMSO and further diluted to 10-fold concentration in medium. The final DMSO concentration was 0.5%. The toxicity of compounds was determined after 72 h using the CellTiter-Glo 2.0 Cell Viability Assay (Promega, Madison, WI, USA, #G9242) according to the manufacturer´s protocol. Subsequently, the luminescence was measured using a Tecan Spark (Tecan Group AG, Maennedorf, Swiss) and the half maximal effective concentration (EC50) was determined by plotting dose response curves and nonlinear regression with GraphPad Prism (GraphPad Software, San Diego, CA, USA). […] Cellular HDAC Inhibition Assay […] with minor changes. […] The DMSO-stock solutions were used to perform a serial dilution in DMSO. […] 10 µL of the substrate solution was added and incubated for 3 h under cell culture conditions. […] S8

For experiment [2], the system named is MDA-MB-231 cells. In words: MTT cell viability assay. The note with it: 72 h, n.e.: no effect (≤25 % effect up to 50 μM); for EC50: Homo sapiens, MDA-MB-231. The format is cell-based, human. As to the method: (§1) GraphPad Prism (GraphPad Software).
(§2) 2.8. MTT Cell Viability Assay
(§3) U-87MG cells (3 × 10^3 cells/well) or MDA-MB-231 cells (5 × 10^3 cells/well) were seeded in 96-well flat-bottomed plates. After 24 h the cells were incubated with the stock solutions of the respective compounds dissolved in DMSO (highest DMSO concentration, 0.5%) to reach the final concentrations as indicated. Controls received DPBS or DMSO. Following a 71 h incubation period 20 µl of a freshly prepared 5 mg/ml MTT (3-(4,5-dimethylthiazol-2-yl)-2,5-diphenyltetrazolium bromide, AppliChem GmbH, Darmstadt, Germany) solution were added into each well. The supernatant was discarded after 1 h incubation at 37 °C and the precipitated formazan was dissolved in 200 µl DMSO/well. Absorption was measured at 570 nm with background subtraction at 690 nm using a photometric microplate reader (Thermo Scientific Multiskan EX, Thermo Fisher Scientific). Data was further subtracted by the DMSO control and normalized on DPBS. The half-maximal effective concentration (EC50) was determined by plotting dose response curves and nonlinear regression with GraphPad Prism (GraphPad Software). […]
(In general: Formazan colour is commonly taken as a measure of viable cells.)

For experiment [3], the system named is U-87MG cells. The experiment is described as follows: MTT cell viability assay. The note with it: Homo sapiens, 72 h, n.e.: no effect (≤25 % effect up to 50 μM). The format is cell-based. On the procedure:
as §1, §2, §3

The target of experiment [4] is HDAC1 (Homo sapiens, UniProt Q13547). In words: Simple Western immunoassay, HDAC1 levels in MM.1S cell lysates. The format is cell-based. Set-up: endogenous in cells; host or cells: MM.1S. As to conditions: MM.1S cells, 10 μM; for reduction of HDAC1 levels: 24 h. As to the method:
Figure 3 Initial degradation screening of HDAC1 and 6 by DCAF11‐recruiting PROTACs by Simple Western™ immunoassay analysis of MM.1S cell lysates. MM.1S cells were treated with the indicated compound (10 μM) or vehicle (DMSO) for 24 h. […] Bottom: Representative images from a total of n=3 biological replicates, labeled with spacer type; w/o: without spacer.
2. Biological Experiments
No unexpected or unusually high safety hazards were encountered.
The human multiple myeloma cell line MM.1S (CRL-2974) was obtained from American Type Culture Collection (ATCC, Manassas, VA, USA). The semi-adherent cells were cultivated in RPMI 1640 medium (Catalog#21875-034, Gibco, ThermoFisher Scientific Inc., Waltham, MA, USA) supplemented with 10% FBS (PAN Biotech GmbH; Aidenbach, Germany), 100 IU/mL penicil lin, 0.1 mg/mL streptomycin (PAN Biotech GmbH) and 1 mM sodium pyruvate (ThermoFisher Scientific Inc.). […]
(PAN Biotech GmbH). All cells were cultured at 37 °C in a 5% CO2 atmosphere. Incubation times, as part of assay protocols, were performed under these conditions as well. The semi-adherent MM.1S were detached mechanically by using a cell scraper and the adhered […] were trypsinased by trypsin/EDTA (0.05%/0.02% in DPBS, PAN Biotech GmbH) whereas the U-87MG were detached by […]
2.2. Simple Western™ Immunoassay
For the cell lysates, MM.1S (0.5 × 10^6 cells/mL) or U-87MG (0.18 × 10^6 cells/mL) cells were seeded and incubated with the indicated concentration of compound or vehicle (DMSO) for the given time. The adherent cells were cultured for 24 h under cell culture conditions for attachment before treatment. Cell lysis was performed with Cell Extraction Buffer (10 mM Tris, pH 7.4, 100 mM NaCl, 1 mM EDTA, […]
SDS, 0.5% deoxycholate; Catalog# FNN0011, Thermo Fisher Scientific Inc., Waltham, MA, USA) with addition of Halt Protease Inhibitor Cocktail (100×) (Catalog# 78429, Life Technologies GmbH, Carlsbad, CA, USA) and phenylmethanesulfonyl fluoride (Catalog# 10837091001, Sigma-Aldrich, St.
Louis, MO, USA) according to manufacturer´s instructions. Protein content was determined by Pierce™ BCA Protein Assay Kit (Catalog# 23225, Thermo Fisher Scientific Inc.) according to manufacturer´s guidelines. Cell lysates were diluted to a final concentration of 1 mg/mL and denatured according to manufacturer’s guidelines. Anti-HDAC1 (Catalog# 5356S, Cell Signaling Technology, Denver, MA, USA), anti-HDAC6 (Catalog#7558S, Cell Signaling Technology) and anti-GAPDH (Catalog# 2118S, […]
Fluorescence Separation 8x25 Capillary Cartridges (Catalog# SM-FL004-1, Protein Simple, Bio-Techne, Minneapolis, MN, USA) were used for separation and the Anti-Mouse Detection Module (Catalog# DM-002, Protein Simple) was used for detection with addition of 20x Anti-Rabbit HRP […]
Conjugate (Catalog# 043-426, Protein Simple) according to manufacturer´s instructions. The assay was performed with the Jess Simple Western System (catalog# 004-650, Protein Simple), according to manufacturer´s settings. Evaluation and quantification was performed with the compass software (6.2.0, Protein Simple). GraphPad Prism (GraphPad Software, San Diego, CA, USA) was used for normalization, statistical analysis and bar graph creation. Significance testing was performed with a one-way analysis of variance (ANOVA). […]
of each mean compared to a reference mean value. […]
AMC (Catalog# 233691-67-3, BLD pharma) was prepared with and without IGEPAL CA-630 (0.5%, Catalog# J61055, Alfa Aesar). 10 µL of the substrate solution was added and incubated for 3 h under cell culture conditions. The reaction was stopped with 100 µL of stop solution (50 mM Tris-HCl, […]
Trypsin) and incubated for 1.5 h under cell culture conditions. The fluorescence signal was measured by a FLUOstar OPTIMA microplate reader (BMG labtech, Ortenburg, Germany) at excitation of λ = 355 nm and emission of λ = 460 nm. All Compounds were tested in two independent experiments in duplicates and IC50 was determined by nonlinear regression with GraphPad Prim.

Chain of HDAC1 (Q13547 whole entry): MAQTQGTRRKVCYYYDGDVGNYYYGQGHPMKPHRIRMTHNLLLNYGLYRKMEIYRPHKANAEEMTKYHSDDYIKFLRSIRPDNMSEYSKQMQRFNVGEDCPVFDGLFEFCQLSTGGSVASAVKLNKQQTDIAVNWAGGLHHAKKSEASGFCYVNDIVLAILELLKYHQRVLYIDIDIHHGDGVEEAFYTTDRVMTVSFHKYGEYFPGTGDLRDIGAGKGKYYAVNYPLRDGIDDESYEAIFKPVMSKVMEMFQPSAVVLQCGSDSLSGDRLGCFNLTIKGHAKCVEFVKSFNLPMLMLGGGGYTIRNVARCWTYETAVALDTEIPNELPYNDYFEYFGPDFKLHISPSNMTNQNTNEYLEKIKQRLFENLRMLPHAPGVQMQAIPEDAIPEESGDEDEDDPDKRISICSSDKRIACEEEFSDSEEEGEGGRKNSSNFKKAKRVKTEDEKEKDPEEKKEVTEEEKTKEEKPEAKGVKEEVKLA

As a reminder, the EC50 is the concentration giving half of the maximal effect. With `O=CN(CCCCCCCCCCCC(=O)Nc1ccc(C(=O)NCCCCCCC(=O)NO)cc1)C(C(=O)NCc1ccccc1)c1ccc(Cl)c(Cl)c1` (stereo not shown) [Compound 1j-nc], the values for the EC50 in experiment [1] and in experiment [3] were 8600 ± 1500 nM and 43 ± 18 µM, respectively. The “EC50 MDA-MB-231” value in experiment [2] was “n.e”; in experiment [2] (listed as 1j‐nc), “no activity”. For the same compound, in experiment [4] (14 h), the “effect on HDAC1 protein levels” value was “not able to affect the protein levels of HDAC1 and 6”.

In the case of `O=C(CCCCCCNC(=O)c1ccc(NC(=O)CCCCCCCCCCCN(C(=O)CCl)C(C(=O)NCc2ccccc2)c2ccc(Cl)c(Cl)c2)cc1)NO` (stereo not shown) [Compound 1j], the EC50 in experiment [1] turned out to be 2800 ± 100 nM; in experiment [2], 28 ± 10 µM; in experiment [3], 30 ± 5 µM. The “antiproliferative activity reduced compared to vorinostat by a factor” value in experiment [1] is listed as 3 – 6. In addition, in experiment [4], the “reduction of HDAC1 levels” value was 71%. Besides, in experiment [4] (after 6 h), the “time dependent degradation of HDAC1” value was “significant degradation”.

On to `O=C(CCCCCCNC(=O)c1ccc(N(C(=O)CCl)C(C(=O)NCc2ccccc2)c2ccc(Cl)c(Cl)c2)cc1)NO` (stereo not shown) [Compound 2], for which the EC50 in experiment [1] worked out at 1500 ± 100 nM; in experiment [2] it was 8.8 ± 3.2 µM; in experiment [3], 12 ± 3 µM. The “antiproliferative activity reduced compared to vorinostat by a factor” value in experiment [1] is 3 – 6. The “reduction of HDAC1 levels” value in experiment [4] is 55%.
